What all share (format): cell-based
For one assay, the system named is HEK293 cells. Briefly: In vitro cytotoxicity assay. Conditions: Homo sapiens, HEK293, read-out: IC50 HEK293.
Assay [1] concerns Trypanosoma brucei brucei 427 trypomastigotes. Nature of the assay: In vitro anti-trypanosomal assay. Conditions: Trypanosoma brucei, 24 h, 427 strain, read-out: IC50 T. b. brucei. How it is done: Trypanosoma brucei brucei 427 trypomastigotes were cultured in iscove’s modified Dulbecco’s medium (IMDM; Lonza, Basel, Switzerland) supplemented with 10% fetal calf serum, HMI-9 supplement, hypoxanthine and penicillin/streptomycin at 37 °C in a 5% CO2 incubator. Serial dilutions of test compounds were incubated with the parasites in 96-well plates for 24 h and residual parasite viability in the wells determined as previously reported.

The test system of assay [2] is 3D7 strain of Plasmodium falciparum. Briefly: In vitro antiplasmodial assay (pLDH).
Assay [3] has as its system Mycobacterium tuberculosis pMSp12::GFP. Nature of the assay: microbe, parasite or virus in culture.
[4] abbreviates: Plasmodium falciparum, 3D7, 48 h, read-out: IC50 Pf 3D7, chloroquine sensitive strain 3D7, 48 h, pLDH.
The mark [5] stands for this setting: Mycobacterium tuberculosis, H37RV, 336 h.
Where [6] appears, read: read-out: IC50 Pf 3D7, chloroquine sensitive strain 3D7, 48 h, pLDH.

Our source for the IC50 and MIC90 values is article PMC7931078 (Molecules, 2021).

Converted amounts (≈) assume the structure as drawn. Where two headings read alike, the source gives them in different places.

With `CCOC(=O)c1cn(CC)c2ccc(Cn3cnc4c3c(=O)n(C)c(=O)n4C)cc2c1=O` [Compound 3a, Ethyl 6-((1,3-dimethyl-2,6-dioxo-1,2,3,6-tetrahydro-7H-purin-7-yl)methyl)-1-ethyl-4-oxo-1,4-dihydroquinolone-3-carboxylate], the IC50 in the assay with HEK293 cells is above 32 µg/mL; in assay [1] it was above 20 µM; in assay [2] (setting [4]) it was above 20 µM. Besides, the MIC90 in assay [3] and in assay [3] (setting [5]) was above 125 µM each time.

For `CCOC(=O)c1cn(Cc2ccccc2)c2ccc(Cn3cnc4c3c(=O)n(C)c(=O)n4C)cc2c1=O` [Compound 3c, Ethyl 1-benzyl-6-((1,3-dimethyl-2,6-dioxo-1,2,3,6-tetrahydro-7H-purin-7-yl)methyl)-4-oxo-1,4-dihydroquinolone-3-carboxylate], the IC50 in the assay on HEK293 cells was above 32 µg/mL; in assay [1] it was 14.5 µM; in assay [2] (setting [4]), above 20 µM. In assay [3] (setting [5]), the MIC90 is above 125 µM.

For `CCOC(=O)c1cn(Cc2ccc(Br)cc2)c2ccc(Cn3cnc4c3c(=O)n(C)c(=O)n4C)cc2c1=O` [Compound 3d, Ethyl 1-(4-bromobenzyl)-6-((1,3-dimethyl-2,6-dioxo-1,2,3,6-tetrahydro-7H-purin-7-yl)methyl)-4-oxo-1,4-dihydroquinolone-3-carboxylate], the IC50 in the assay with HEK293 cells is above 32 µg/mL; in assay [1], 21.6 µM; in assay [2] (setting [4]), 13.6 µM. This compound showed an MIC90 in assay [3] (setting [5]) of 15.6 µM (≈ 9.02 µg/mL).

Turning to `CCn1cc(C(=O)NCCNCCO)c(=O)c2cc(Cn3cnc4c3c(=O)n(C)c(=O)n4C)ccc21` [Compound 4a, 6-((1,3-Dimethyl-2,6-dioxo-1,2,3,6-tetrahydro-7H-purin-7-yl)methyl)-1-ethyl-N-(2-((2-hydroxyethyl)amino)ethyl)-4-oxo-1,4-dihydroquinolone-3-carboxamide], the concentration for half-maximal inhibition (IC50) was above 32 µg/mL with HEK293 cells, above 20 µM in assay [1] and above 20 µM in assay [2] (setting [4]). Further, the MIC90 in assay [3] and in assay [3] (setting [5]) was above 125 µM in each case.

As for `CCn1cc(C(=O)NCCOCCO)c(=O)c2cc(Cn3cnc4c3c(=O)n(C)c(=O)n4C)ccc21` [Compound 4b, 6-((1,3-Dimethyl-2,6-dioxo-1,2,3,6-tetrahydro-7H-purin-7-yl)methyl)-1-ethyl-N-(2-(2-hydroxyethoxy)ethyl)-4-oxo-1,4-dihydroquinolone-3-carboxamide], the IC50 in the assay on HEK293 cells is above 32 µg/mL; in assay [1] it was above 20 µM; in assay [2] (setting [4]), above 20 µM. The compound further displayed an MIC90 in assay [3] (setting [5]) above 125 µM.

For `Cn1c(=O)c2c(ncn2Cc2ccc3c(c2)c(=O)c(C(=O)NCCNCCO)cn3Cc2ccccc2)n(C)c1=O` [Compound 4d, 1-Benzyl-6-((1,3-dimethyl-2,6-dioxo-1,2,3,6-tetrahydro-7H-purin-7-yl)methyl)-N-(2-((2-hydroxyethyl)amino)ethyl)-4-oxo-1,4-dihydroquinolone-3-carboxamide], the half-maximal inhibitory concentration (IC50) in the assay on HEK293 cells is above 32 µg/mL; in assay [1], above 20 µM; in assay [2] (setting [4]), at least 25 µM; in assay [2] (setting [6]), above 20 µM. The MIC90 in assay [3] (setting [5]) is 7.9 µM (≈ 4.41 µg/mL).

Take `Cn1c(=O)c2c(ncn2Cc2ccc3c(c2)c(=O)c(C(=O)NCCOCCO)cn3Cc2ccccc2)n(C)c1=O` [Compound 4e, 1-Benzyl-6-((1,3-dimethyl-2,6-dioxo-1,2,3,6-tetrahydro-7H-purin-7-yl)methyl)-N-(2-(2-hydroxyethoxy)ethyl)-4-oxo-1,4-dihydroquinolone-3-carboxamide]: the half-inhibitory concentration (IC50) with HEK293 cells was above 32 µg/mL; in assay [1], 26.8 µM; in assay [2] (setting [4]), at least 25 µM; in assay [2] (setting [6]) it was above 20 µM. This compound also yielded an MIC90 in assay [3] (setting [5]) above 125 µM.

With `COCCNC(=O)c1cn(Cc2ccccc2)c2ccc(Cn3cnc4c3c(=O)n(C)c(=O)n4C)cc2c1=O` [Compound 4f, 1-Benzyl-6-((1,3-dimethyl-2,6-dioxo-1,2,3,6-tetrahydro-7H-purin-7-yl)methyl)-N-(2-methoxyethyl)-4-oxo-1,4-dihydroquinolone-3-carboxamide], the IC50 with HEK293 cells is above 32 µg/mL; in assay [1], above 20 µM; in assay [2] (setting [4]), above 20 µM. Further, the MIC90 in assay [3] (setting [5]) is above 125 µM.

For the compound `Cn1c(=O)c2c(ncn2Cc2ccc3c(c2)c(=O)c(C(=O)NCCNCCO)cn3Cc2ccc(Br)cc2)n(C)c1=O` [Compound 4g, 1-(4-Bromobenzyl)-6-((1,3-dimethyl-2,6-dioxo-1,2,3,6-tetrahydro-7H-purin-7-yl)methyl)-N-(2-((2-hydroxyethyl)amino)ethyl)-4-oxo-1,4-dihydroquinolone-3-carboxamide], the IC50 in the assay with HEK293 cells is above 32 µg/mL; in assay [1], above 20 µM. This compound returned an MIC90 in assay [3] (setting [5]) of 7.9 µM (≈ 5.03 µg/mL).

For the compound `Cn1c(=O)c2c(ncn2Cc2ccc3c(c2)c(=O)c(C(=O)NCCOCCO)cn3Cc2ccc(Br)cc2)n(C)c1=O` [Compound 4h, 1-(4-Bromobenzyl)-6-((1,3-dimethyl-2,6-dioxo-1,2,3,6-tetrahydro-7H-purin-7-yl)methyl)-N-(2-(2-hydroxyethoxy)ethyl)-4-oxo-1,4-dihydroquinolone-3-carboxamide], the half-maximal inhibitory concentration (IC50) was above 32 µg/mL in the assay with HEK293 cells, above 20 µM in assay [1] and 0.68 µM in assay [2] (setting [4]). The MIC90 in assay [3] and in assay [3] (setting [5]) was above 125 µM in each case.

On to `CCOC(=O)c1cn(CC)c2ccc(OCc3ccc(C(F)(F)F)cc3)cc2c1=O` [Compound 7a, Ethyl 1-ethyl-4-oxo-6-((4-(trifluoromethyl)benzyl)oxy)-1,4-dihydroquinolone-3-carboxylate], for which the results for the 50% inhibitory concentration (IC50) (in the assay on HEK293 cells; in assay [1]) were above 32 µg/mL and 18.5 µM, respectively. This compound also displayed an MIC90 in assay [3] (setting [5]) above 125 µM.

As to `CCn1cc(C(=O)NCCOCCO)c(=O)c2cc(OCc3ccc(C(F)(F)F)cc3)ccc21` [Compound 8a, 1-Ethyl-N-(2-(2-hydroxyethoxy)ethyl)-4-oxo-6-((4-(trifluoromethyl)benzyl)oxy)-1,4-dihydroquinolone-3-carboxamide], the IC50 in the assay on HEK293 cells is above 32 µg/mL; in assay [1] it was 14.1 µM; in assay [2] (setting [4]), below 10 µM; in assay [2] (setting [6]) it was 6.8 µM. This compound registered an MIC90 in assay [3] (setting [5]) of 7.8 µM (≈ 3.73 µg/mL).

In the case of `CCn1cc(C(=O)NCCOCCO)c(=O)c2cc(OCc3ccc(C(F)(F)F)cc3)c(Cl)cc21` [Compound 8d, 7-Chloro-1-ethyl-N-(2-(2-hydroxyethoxy)ethyl)-4-oxo-6-((4-(trifluoromethyl)benzyl)oxy)-1,4-dihydroquinolone-3-carboxamide], the IC50 with HEK293 cells is above 32 µg/mL; in assay [1], above 20 µM; in assay [2] (setting [4]), above 20 µM. In addition, the MIC90 in assay [3] (setting [5]) is above 125 µM.

As to `O=C(NCCOCCO)c1cn(Cc2ccccc2)c2cc(Cl)c(OCc3ccc(C(F)(F)F)cc3)cc2c1=O` [Compound 8h, 1-Benzyl-7-chloro-N-(2-(2-hydroxyethoxy)ethyl)-4-oxo-6-((4-(trifluoromethyl)benzyl)oxy)-1,4-dihydroquinolone-3-carboxamide], the IC50 with HEK293 cells is above 32 µg/mL; in assay [1] it was above 20 µM; in assay [2] (setting [4]) it was above 20 µM. This compound also registered an MIC90 in assay [3] (setting [5]) of 16 µM (≈ 9.2 µg/mL).

Turning to `CCOC(=O)c1cn(CC)c2ccc([N+](=O)[O-])cc2c1=O` [Compound 11, Ethyl 1-ethyl-6-nitro-4-oxo-1,4-dihydroquinolone-3-carboxylate], the IC50 in the assay on HEK293 cells was above 32 µg/mL; in assay [1], above 20 µM; in assay [2] (setting [4]) it was above 20 µM. The compound also had an MIC90 in assay [3] (setting [5]) of 31.3 µM (≈ 9.09 µg/mL).

In general, IC50 refers to the concentration needed to halve the response being measured.
